Measured values reported in patent US20230398130A1, “METHODS AND COMPOSITIONS FOR DIFFERENTIATING STEM CELLS” (Massachusetts Institute of Technology, priority 2020, published 2023).

Key:
ISC-enriched organoids [1] = assay: Primary screen, 384-well 2.5-D organoid differentiation (ENR+CD, 6 days): basal lysozyme secretion (LYZ.NS); format: cell-based, murine; conditions: primary screen; for Dose.FC.LYZ.NS: ENR+CD 6 days, FC vs plate median; for Z.LYZ.NS: standard z score of FC
Excerpt: (§1) High-throughput screening.

ISC-enriched organoids [2] = assay: Primary screen, 384-well 2.5-D organoid differentiation (ENR+CD, 6 days): carbachol-induced lysozyme secretion (LYZ.S); format: cell-based, murine; conditions: primary screen, ENR+CD 6 days, FC vs plate median
Excerpt: as §1

ISC-enriched organoids [3] = assay: Primary screen, 384-well 2.5-D organoid differentiation (ENR+CD, 6 days, Target Selective Inhibitor Library, vs whole-plate median): ATP (CellTiter-Glo 3D, CTG); conditions: primary screen; for Dose.FC.CTG: ENR+CD 6 days, FC vs plate median; for Z.CTG: standard z score of FC

## COC1CCN(C(=O)c2cc(Cc3n[nH]c(=O)c4ccccc34)ccc2F)CC1 [AZD2461]
ISC-enriched organoids [1]; dose 0.08 uM
  Dose.FC.LYZ.NS: 0.038 log 2 fold change
  Z.LYZ.NS: 0.334
ISC-enriched organoids [1]; dose 0.40 uM
  Dose.FC.LYZ.NS: −0.038 log 2 fold change
  Z.LYZ.NS: −0.327
ISC-enriched organoids [1]; dose 2.00 uM
  Dose.FC.LYZ.NS: −0.074 log 2 fold change
  Z.LYZ.NS: −0.641
ISC-enriched organoids [1]; dose 10.00 uM
  Dose.FC.LYZ.NS: −0.172 log 2 fold change
  Z.LYZ.NS: −1.497
ISC-enriched organoids [2]; dose 0.08 uM
  Dose.FC.LYZ.S: 0.097 log 2 fold change
ISC-enriched organoids [2]; dose 0.40 uM
  Dose.FC.LYZ.S: 0.015 log 2 fold change
ISC-enriched organoids [2]; dose 2.00 uM
  Dose.FC.LYZ.S: −0.100 log 2 fold change
ISC-enriched organoids [2]; dose 10.00 uM
  Dose.FC.LYZ.S: −0.224 log 2 fold change
ISC-enriched organoids [3]; dose 0.08 uM
  Dose.FC.CTG: 0.073 log 2 fold change
  Z.CTG: 0.174
ISC-enriched organoids [3]; dose 0.40 uM
  Dose.FC.CTG: −0.040 log 2 fold change
  Z.CTG: −0.095
ISC-enriched organoids [3]; dose 2.00 uM
  Dose.FC.CTG: −0.232 log 2 fold change
  Z.CTG: −0.555
ISC-enriched organoids [3]; dose 10.00 uM
  Dose.FC.CTG: −0.336 log 2 fold change
  Z.CTG: −0.803

## COc1cc(N2CCC(N)CC2)ccc1Nc1ncc(Cl)c(-c2c[nH]c3ccccc23)n1 [AZD3463]
ISC-enriched organoids [1]; dose 0.08 uM
  Dose.FC.LYZ.NS: −0.147 log 2 fold change
  Z.LYZ.NS: −1.279
ISC-enriched organoids [1]; dose 0.40 uM
  Dose.FC.LYZ.NS: −0.190 log 2 fold change
  Z.LYZ.NS: −1.652
ISC-enriched organoids [1]; dose 2.00 uM
  Dose.FC.LYZ.NS: −0.232 log 2 fold change
  Z.LYZ.NS: −2.021
ISC-enriched organoids [1]; dose 10.00 uM
  Dose.FC.LYZ.NS: −0.209 log 2 fold change
  Z.LYZ.NS: −1.820
ISC-enriched organoids [2]; dose 0.08 uM
  Dose.FC.LYZ.S: −0.199 log 2 fold change
ISC-enriched organoids [2]; dose 0.40 uM
  Dose.FC.LYZ.S: −0.293 log 2 fold change
ISC-enriched organoids [2]; dose 2.00 uM
  Dose.FC.LYZ.S: −0.315 log 2 fold change
ISC-enriched organoids [2]; dose 10.00 uM
  Dose.FC.LYZ.S: −0.328 log 2 fold change
ISC-enriched organoids [3]; dose 0.08 uM
  Dose.FC.CTG: −0.275 log 2 fold change
  Z.CTG: −0.657
ISC-enriched organoids [3]; dose 0.40 uM
  Dose.FC.CTG: −0.341 log 2 fold change
  Z.CTG: −0.814
ISC-enriched organoids [3]; dose 2.00 uM
  Dose.FC.CTG: −0.772 log 2 fold change
  Z.CTG: −1.843
ISC-enriched organoids [3]; dose 10.00 uM
  Dose.FC.CTG: −0.960 log 2 fold change
  Z.CTG: −2.293

## Cc1cc([C@@H](C)Nc2ccccc2C(=O)O)c2nc(N3CCOCC3)cc(=O)n2c1 [AZD6482]
ISC-enriched organoids [1]; dose 0.08 uM
  Dose.FC.LYZ.NS: 0.108 log 2 fold change
  Z.LYZ.NS: 0.944
ISC-enriched organoids [1]; dose 0.40 uM
  Dose.FC.LYZ.NS: 0.076 log 2 fold change
  Z.LYZ.NS: 0.660
ISC-enriched organoids [1]; dose 2.00 uM
  Dose.FC.LYZ.NS: −0.130 log 2 fold change
  Z.LYZ.NS: −1.129
ISC-enriched organoids [1]; dose 10.00 uM
  Dose.FC.LYZ.NS: −0.248 log 2 fold change
  Z.LYZ.NS: −2.160
ISC-enriched organoids [2]; dose 0.08 uM
  Dose.FC.LYZ.S: 0.182 log 2 fold change
ISC-enriched organoids [2]; dose 0.40 uM
  Dose.FC.LYZ.S: 0.156 log 2 fold change
ISC-enriched organoids [2]; dose 2.00 uM
  Dose.FC.LYZ.S: −0.114 log 2 fold change
ISC-enriched organoids [2]; dose 10.00 uM
  Dose.FC.LYZ.S: −0.253 log 2 fold change
ISC-enriched organoids [3]; dose 0.08 uM
  Dose.FC.CTG: 0.240 log 2 fold change
  Z.CTG: 0.572
ISC-enriched organoids [3]; dose 0.40 uM
  Dose.FC.CTG: 0.223 log 2 fold change
  Z.CTG: 0.533
ISC-enriched organoids [3]; dose 2.00 uM
  Dose.FC.CTG: −0.509 log 2 fold change
  Z.CTG: −1.215
ISC-enriched organoids [3]; dose 10.00 uM
  Dose.FC.CTG: −1.203 log 2 fold change
  Z.CTG: −2.874

## CN(C)C(=O)c1ccc(S(=O)(=O)c2ccc(NC(=O)[C@@](C)(O)C(F)(F)F)c(Cl)c2)cc1 [AZD7545]
ISC-enriched organoids [1]; dose 0.08 uM
  Dose.FC.LYZ.NS: 0.087 log 2 fold change
  Z.LYZ.NS: 0.758
ISC-enriched organoids [1]; dose 0.40 uM
  Dose.FC.LYZ.NS: −0.028 log 2 fold change
  Z.LYZ.NS: −0.245
ISC-enriched organoids [1]; dose 2.00 uM
  Dose.FC.LYZ.NS: −0.018 log 2 fold change
  Z.LYZ.NS: −0.155
ISC-enriched organoids [1]; dose 10.00 uM
  Dose.FC.LYZ.NS: −0.051 log 2 fold change
  Z.LYZ.NS: −0.441
ISC-enriched organoids [2]; dose 0.08 uM
  Dose.FC.LYZ.S: 0.111 log 2 fold change
ISC-enriched organoids [2]; dose 0.40 uM
  Dose.FC.LYZ.S: −0.017 log 2 fold change
ISC-enriched organoids [2]; dose 2.00 uM
  Dose.FC.LYZ.S: −0.148 log 2 fold change
ISC-enriched organoids [2]; dose 10.00 uM
  Dose.FC.LYZ.S: −0.104 log 2 fold change
ISC-enriched organoids [3]; dose 0.08 uM
  Dose.FC.CTG: −0.334 log 2 fold change
  Z.CTG: −0.798
ISC-enriched organoids [3]; dose 0.40 uM
  Dose.FC.CTG: −0.158 log 2 fold change
  Z.CTG: −0.378
ISC-enriched organoids [3]; dose 2.00 uM
  Dose.FC.CTG: −0.255 log 2 fold change
  Z.CTG: −0.608
ISC-enriched organoids [3]; dose 10.00 uM
  Dose.FC.CTG: −0.350 log 2 fold change
  Z.CTG: −0.836

## NC(=O)Nc1cc(-c2cccc(F)c2)sc1C(=O)N[C@H]1CCCNC1 [AZD7762]
ISC-enriched organoids [1]; dose 0.08 uM
  Dose.FC.LYZ.NS: 0.010 log 2 fold change
  Z.LYZ.NS: 0.084
ISC-enriched organoids [1]; dose 0.40 uM
  Dose.FC.LYZ.NS: −0.159 log 2 fold change
  Z.LYZ.NS: −1.385
ISC-enriched organoids [1]; dose 2.00 uM
  Dose.FC.LYZ.NS: −0.211 log 2 fold change
  Z.LYZ.NS: −1.835
ISC-enriched organoids [1]; dose 10.00 uM
  Dose.FC.LYZ.NS: −0.220 log 2 fold change
  Z.LYZ.NS: −1.917
ISC-enriched organoids [2]; dose 0.08 uM
  Dose.FC.LYZ.S: 0.019 log 2 fold change
ISC-enriched organoids [2]; dose 0.40 uM
  Dose.FC.LYZ.S: −0.251 log 2 fold change
ISC-enriched organoids [2]; dose 2.00 uM
  Dose.FC.LYZ.S: −0.342 log 2 fold change
ISC-enriched organoids [2]; dose 10.00 uM
  Dose.FC.LYZ.S: −0.369 log 2 fold change
ISC-enriched organoids [3]; dose 0.08 uM
  Dose.FC.CTG: 0.054 log 2 fold change
  Z.CTG: 0.129
ISC-enriched organoids [3]; dose 0.40 uM
  Dose.FC.CTG: −0.384 log 2 fold change
  Z.CTG: −0.917
ISC-enriched organoids [3]; dose 2.00 uM
  Dose.FC.CTG: −0.804 log 2 fold change
  Z.CTG: −1.920
ISC-enriched organoids [3]; dose 10.00 uM
  Dose.FC.CTG: −1.361 log 2 fold change
  Z.CTG: −3.251
